# Results from patent US5877210A, “Phosphotyrosine phosphatase inhibitors or phosphotyrosine kinase activators for controlling cellular proliferation” (priority 1995, dated 1999).
# Entries after “also recorded” stand apart in the source; their conditions may differ. Read-outs that look alike come from different tables or passages of the source.
# Columns and labels:
# Jurkat [1] = assay type: cell-based, human
# Source text: The extent to which the T cells were being killed by BMLOV treatment relative to the Ramos B cells was therefore examined. […] The percentage of cells in each quadrant is indicated. The lower right quadrant contains the viable cells.
# [2] = test system: antibody-producing B cells; assay: Class-switching: Ig production by anti-CD40 + IL-4 treated B cells; assay type: cell-based, human
# Experimental: The effects of BMLOV were assayed on class-switching in antibody-producing B cells. Human B cells producing antibody were treated with anti-CD40 antibody plus IL-4, which increased production of IgE over 10-fold (Table 7). […] In contrast, the production of IgG1 and IgG4 was much less affected, particularly at a dose of 5.6 μM BMLOV. This selective effect is important because the IgG antibody production is an important response to infectious disease. It would be of value to suppress IgE production for the treatment of allergies while maintaining IgG production, particularly in conditions in which an allergy coexists with an infectious disease. A common example is the exacerbation of allergic rhinitis (hay fever) as the result of a respiratory infection.
# [3] = test system: calf intestinal alkaline phosphatase; assay: Alkaline phosphatase inhibition; assay type: biochemical
# Ramos B cells = assay: Ca2+ signaling in Ramos B cells; assay type: cell-based, human
# Experimental: Ca^2+ responses were measured using indo-1 (Molecular Probes, Eugene, Oreg.) and a model 50 HH/2150 flow cytometer (Ortho, Westwood, Mass.) as previously described (P. S. Rabinovitch et al., J. Immunol. 137:952-961 (1986)). The histograms were analyzed by programs (Cicero, Cytomation Inc., Ft. Collins, Colo.) that calculate the mean indo-1 violet/blue fluorescence ratio versus time. There are 100 data points on the X (time) axis for all flow cytometric data.
# In the experiments shown in FIG. 22, Ramos B cells were treated overnight with the indicated concentrations of BMLOV. The baseline level of intracellular free Ca^2+ ([Ca^2+ ]i) was established for 1 min, and then the cells were treated with anti-human IgM F(ab')2 (α-μ). The gap in the trace reflects the addition of α-μ. An acute Ca^2+ response to the addition of BMLOV to the Ramos cells was not observed, in contrast to the rapid elevation of Ca^2+ observed following treatment with pervanadate or H2 O2 (G. L. Schieven et al., Blood 82:1212-1220 (1993)); G. L. Schieven et al., J. Biol. Chem. 268:16688-16692 (1993)).
# CEM = assay: Apoptosis: DNA fragmentation on agarose gel; assay type: cell-based, human
# Experimental: (§1) For these experiments, cell samples (2×10^6 cells) were centrifuged at 200× g, the media removed by aspiration and the cell pellets stored at -70° C. until processing. Cell pellets were resuspended in 300 μl digestion buffer (100 mM NaCl, 10 mM Tris-HCl, pH 8.0, 25 mM EDTA, 0.5% SDS, 0.1 mg/ml protease K) and incubated for 12 hours at 50° C. DNase-free ribonuclease (5 μg) in 200 μl TE buffer (10 mM Tris-HCl, pH 7.5, 1 mM EDTA) was added to each sample followed by incubation for 2 hours at 37° C. DNA was then extracted once with phenol:chloroform, once with chloroform and then precipitated with 0.5 volumes of ammonium acetate and 2 volumes of ethanol at -70° C. for 12 hours. The precipitated DNA was resuspended in 200 μl TE buffer and quantitated by absorbance at 260 nanometers. The DNA (15 μg) was applied to a 1.3% agarose gel in TBE buffer (89 mM Tris base, 89 mM boric acid, 2 mM EDTA) resolved at 20 mA constant current and the DNA was visualized by staining with ethidium bromide. Fragmented DNA due to apoptosis appeared as a ladder of bands on the gel.
# Jurkat [4] = assay: Apoptosis: DNA fragmentation on agarose gel; assay type: cell-based, human
# Experimental: as §1
# [5] = test system: Ramos B cell lymphoma cells; assay: Apoptosis: DNA fragmentation on agarose gel; assay type: cell-based, human; details: 10 μM, by 48 hours
# Experimental: as §1
# HL60 = assay: Apoptosis: DNA fragmentation on agarose gel; assay type: cell-based, human; details: dose dependent
# Experimental: as §1
# [6] = Tolerability of BMLOV in mice; assay type: in vivo
# Fyn = assay: Src-family kinase activity from treated Ramos cells; assay type: cell-based, human; details: Ramos cells treated with BMLOV for 15 hours
# Experimental: (§2) Treatment of Ramos cells with BMLOV for 15 hours inhibited the activity of the Src kinases Lyn and Fyn from the cells by approximately 50%.
# Lyn = assay: as above; assay type: cell-based, human; details: Ramos cells treated with BMLOV for 15 hours
# Experimental: as §2
# [7] = Anti-CD40 + IL-4 + 0.002 μM BMLOV
# [8] = Anti-CD40 + IL-4 + 0.008 μM BMLOV
# [9] = Anti-CD40 + IL-4 + 0.02 μM BMLOV
# [10] = Anti-CD40 + IL-4 + 0.07 μM BMLOV
# [11] = Anti-CD40 + IL-4 + 0.2 μM BMLOV
# [12] = Anti-CD40 + IL-4 + 0.6 μM BMLOV
# [13] = Anti-CD40 + IL-4 + 1.9 μM BMLOV
# [14] = Anti-CD40 + IL-4 + 5.6 μM BMLOV
structure (smiles),measurement,setting,value
"[Na+].[O]=[V-]12([O][O]1)[O][O]2.c1cnc2c(c1)ccc1cccnc12 [pV(phen), sodium (1,10-phenanthroline) oxodiperoxovanadium (V)]",cells killed,"Jurkat [1]; Jurkat, 10 μM pV(phen), three days",all the cells
same,cells killed,"Jurkat [1]; human, jurkat cells, 48 h, 10 µM",98%
"Cc1occc(=O)c1[O-].Cc1occc(=O)c1[O-].[O]=[V+2] [BMLOV, Bis(maltolato)oxovanadium (IV)]","increased production of IgE, in words",[2]; 5.6 or 17 μM BMLOV,markedly inhibited
same,[Ig] IgE,[2]; [7],3.9 ng/mL
same,[Ig] IgG1,[2]; [7],450 ng/mL
same,[Ig] IgG4,[2]; [7],1.7 ng/mL
same,[Ig] IgM,[2]; [7],20.4 ng/mL
same,[Ig] IgE,[2]; [8],2.6 ng/mL
same,[Ig] IgG1,[2]; [8],450 ng/mL
same,[Ig] IgG4,[2]; [8],1.1 ng/mL
same,[Ig] IgM,[2]; [8],20.4 ng/mL
same,[Ig] IgE,[2]; [9],4.5 ng/mL
same,[Ig] IgG1,[2]; [9],390 ng/mL
same,[Ig] IgG4,[2]; [9],1.3 ng/mL
same,[Ig] IgM,[2]; [9],19.2 ng/mL
same,[Ig] IgE,[2]; [10],5.1 ng/mL
same,[Ig] IgG1,[2]; [10],450 ng/mL
same,[Ig] IgG4,[2]; [10],2.7 ng/mL
same,[Ig] IgM,[2]; [10],12.0 ng/mL
same,[Ig] IgE,[2]; [11],7.5 ng/mL
same,[Ig] IgG1,[2]; [11],495 ng/mL
same,[Ig] IgG4,[2]; [11],1.2 ng/mL
same,[Ig] IgM,[2]; [11],13.8 ng/mL
same,[Ig] IgE,[2]; [12],5.7 ng/mL
same,[Ig] IgG1,[2]; [12],480 ng/mL
same,[Ig] IgG4,[2]; [12],1.3 ng/mL
same,[Ig] IgM,[2]; [12],17.4 ng/mL
same,[Ig] IgE,[2]; [13],3.0 ng/mL
same,[Ig] IgG1,[2]; [13],450 ng/mL
same,[Ig] IgG4,[2]; [13],2.7 ng/mL
same,[Ig] IgM,[2]; [13],15.6 ng/mL
same,[Ig] IgE,[2]; [14],1.2 ng/mL
same,[Ig] IgG1,[2]; [14],480 ng/mL
same,[Ig] IgG4,[2]; [14],1.8 ng/mL
same,[Ig] IgM,[2]; [14],18.6 ng/mL
same,[Ig] IgE,[2]; Anti-CD40 + IL-4 + 17 μM BMLOV,0.8 ng/mL
same,[Ig] IgG1,[2]; Anti-CD40 + IL-4 + 17 μM BMLOV,450 ng/mL
same,[Ig] IgG4,[2]; Anti-CD40 + IL-4 + 17 μM BMLOV,0.8 ng/mL
same,[Ig] IgM,[2]; Anti-CD40 + IL-4 + 17 μM BMLOV,18.0 ng/mL
same,[Ig] IgE,[2]; Anti-CD40 + IL-4 + 50 μM BMLOV,0.2 ng/mL
same,[Ig] IgG1,[2]; Anti-CD40 + IL-4 + 50 μM BMLOV,60 ng/mL
same,[Ig] IgG4,[2]; Anti-CD40 + IL-4 + 50 μM BMLOV,0.5 ng/mL
same,[Ig] IgM,[2]; Anti-CD40 + IL-4 + 50 μM BMLOV,5.1 ng/mL
same,inhibition of calf intestinal alkaline phosphatase,[3]; 500 μM BMLOV,less than 10%
same,IC50,"[3]; Table 1, p-nitrophenyl phosphate substrate",> 500 µM
same,IC50,[3]; Table 8,> 500 µM
same,Ca2+ signals induced by cross-linking sIgM,"Ramos B cells; 25 μM BMLOV, overnight",Complete inhibition
same,UV-induced Ca2+ signals,Ramos B cells; Ramos B cells,greatly increased and prolonged UV-induced Ca^2+ signals
same,basal Ca2+ levels,"Ramos B cells; Ramos B cells, BMLOV 16 h",elevation of basal Ca^2+ levels
same,induction of apoptosis (DNA fragmentation),CEM,apoptosis was not observed; also recorded: DNA fragmentation was not observed
same,induction of apoptosis (DNA fragmentation),Jurkat [4],apoptosis was not observed; also recorded: DNA fragmentation was not observed
same,induction of apoptosis (DNA fragmentation),[5],induced apoptosis; also recorded: induced extensive DNA fragmentation
same,induction of apoptosis (DNA fragmentation),HL60,Apoptosis was also observed to be induced; also recorded: DNA fragmentation was also induced
same,tolerability,[6]; 1.6 mM BMLOV in drinking water continuously for 10 days,no overt ill effects
same,tolerability,[6]; intraperitoneal doses up to 1 mg and oral doses up to 1.6 mg,without ill effects except for some temporary lethargy
same,inhibition of kinase activity,Fyn,approximately 50%
same,inhibition of kinase activity,Lyn,approximately 50%
